The source made the active and inactive calls.
Assays:
[1] = test system: Echinochloa oryzicola; test: Herbicidal activity against Echinochloa oryzicola under greenhouse condition assessed as growth inhibition at 500 g /ha measured after 42 days; assay type: functional, organism-based
[2] = test system: Echinochloa oryzicola; test: Herbicidal activity against Echinochloa oryzicola under greenhouse condition assessed as growth inhibition at 250 g /ha measured after 20 days; assay type: functional, organism-based
[3] = test system: Echinochloa oryzicola; test: Herbicidal activity against Echinochloa oryzicola under greenhouse condition assessed as growth inhibition at 250 g /ha measured after 13 days; assay type: functional, organism-based
[4] = test system: Lindernia procumbens; test: Herbicidal activity against Lindernia procumbens at 1000 g /ha treated at 1 to 2-pairs of leaf stage measured after 26 days by outdoor concrete pot test; assay type: functional, organism-based
[5] = test system: Cyperus serotinus; test: Herbicidal activity against Cyperus serotinus at 500 g /ha treated at 1 to 1.5-leaf stage measured after 26 days by outdoor concrete pot test; assay type: functional, organism-based
[6] = test system: Echinochloa oryzicola; test: Herbicidal activity against Echinochloa oryzicola under greenhouse condition assessed as growth inhibition at 250 g /ha measured after 42 days; assay type: functional, organism-based
[7] = test system: Echinochloa oryzicola; test: Herbicidal activity against Echinochloa oryzicola under greenhouse condition assessed as growth inhibition at 500 g /ha measured after 20 days; assay type: functional, organism-based
[8] = test system: Lindernia procumbens; test: Herbicidal activity against Lindernia procumbens at 250 g /ha treated at 1 to 2-pairs of leaf stage measured after 26 days by outdoor concrete pot test; assay type: functional, organism-based
[9] = test system: Pontederia vaginalis; test: Herbicidal activity against Monochoria vaginalis at 250 g /ha treated at 1.5 to 2-leaf stage measured after 26 days by outdoor concrete pot test; assay type: functional, organism-based
[10] = test system: Echinochloa oryzicola; test: Herbicidal activity against Echinochloa oryzicola under greenhouse condition assessed as growth inhibition at 125 g /ha measured after 13 days; assay type: functional, organism-based
[11] = test system: Lindernia procumbens; test: Herbicidal activity against Lindernia procumbens at 500 g /ha treated at 1 to 2-pairs of leaf stage measured after 26 days by outdoor concrete pot test; assay type: functional, organism-based
[12] = test system: Elatine triandra; test: Herbicidal activity against Elatine triandra at 1000 g /ha treated at 1 to 2-pairs of leaf stage measured after 26 days by outdoor concrete pot test; assay type: functional, organism-based
[13] = test system: Echinochloa oryzicola; test: Herbicidal activity against Echinochloa oryzicola under greenhouse condition assessed as growth inhibition at 125 g /ha measured after 27 days; assay type: functional, organism-based
[14] = test system: Echinochloa oryzicola; test: Herbicidal activity against Echinochloa oryzicola grown in water-drained pot under greenhouse condition assessed as growth inhibition at 500 g /ha measured after 33 days; assay type: functional, organism-based
[15] = test system: Echinochloa oryzicola; test: Herbicidal activity against Echinochloa oryzicola grown in water-drained pot under greenhouse condition assessed as growth inhibition at 500 g /ha measured after 6 days; assay type: functional, organism-based
[16] = test system: Echinochloa oryzicola; test: Herbicidal activity against Echinochloa oryzicola under greenhouse condition assessed as growth inhibition at 500 g /ha measured after 33 days; assay type: functional, organism-based
[17] = test system: Echinochloa oryzicola; test: Herbicidal activity against Echinochloa oryzicola grown in water-drained pot under greenhouse condition assessed as growth inhibition at 125 g /ha measured after 6 days; assay type: functional, organism-based
[18] = test system: Echinochloa oryzicola; test: Herbicidal activity against Echinochloa oryzicola under greenhouse condition assessed as time duration of residual effect at 125 g /ha; assay type: functional
[19] = test system: Echinochloa oryzicola; test: Herbicidal activity against Echinochloa oryzicola under greenhouse condition assessed as growth inhibition at 125 g /ha measured after 6 days; assay type: functional, organism-based
[20] = test system: Echinochloa oryzicola; test: Herbicidal activity against Echinochloa oryzicola grown in water-drained pot under greenhouse condition assessed as time duration of residual effect at 125 g /ha; assay type: functional
[21] = test system: Echinochloa oryzicola; test: Herbicidal activity against Echinochloa oryzicola at 500 g /ha treated at 1.5 to 2-leaf stage measured after 26 days by outdoor concrete pot test; assay type: functional, organism-based
[22] = test system: Sagittaria pygmaea; test: Herbicidal activity against Sagittaria pygmaea at 1000 g /ha treated at 0.5 to 1-leaf stage measured after 26 days by outdoor concrete pot test; assay type: functional, organism-based
[23] = test system: Rotala indica; test: Herbicidal activity against Rotala indica at 250 g /ha treated at 1 to 2-pairs of leaf stage measured after 26 days by outdoor concrete pot test; assay type: functional, organism-based
[24] = test system: Elatine triandra; test: Herbicidal activity against Elatine triandra at 500 g /ha treated at 1 to 2-pairs of leaf stage measured after 26 days by outdoor concrete pot test; assay type: functional, organism-based
[25] = test system: Echinochloa oryzicola; test: Herbicidal activity against Echinochloa oryzicola under greenhouse condition assessed as growth inhibition at 500 g /ha measured after 13 days; assay type: functional, organism-based
[26] = test system: Schoenoplectiella juncoides; test: Herbicide activity against Schoenoplectiella juncoides under greenhouse condition compound treated at emergence-stage measured after 14 to 20 days; assay type: functional
[27] = test system: Echinochloa oryzicola; test: Herbicidal activity against Echinochloa oryzicola under greenhouse condition assessed as time duration of residual effect at 500 g /ha; assay type: functional
[28] = test system: Sagittaria pygmaea; test: Herbicide activity against Sagittaria pygmaea under greenhouse condition compound treated at 0.5 leaf-stage measured after 14 to 20 days; assay type: functional
[29] = test system: Oryza sativa; test: Phytotoxicity against two-leaf stage Oryza sativa cv. Nihonbare (rice) planted 1 cm depth measured after […]; assay type: organism-based; details: in vivo
[30] = test system: Rotala indica; test: Herbicidal activity against Rotala indica at 500 g /ha treated at 1 to 2-pairs of leaf stage measured after 26 days by outdoor concrete pot test; assay type: functional, organism-based
[31] = test system: Echinochloa oryzicola; test: Herbicidal activity against Echinochloa oryzicola grown in water-drained pot under greenhouse condition assessed as growth inhibition at 125 g /ha measured after 42 days; assay type: functional, organism-based
[32] = test system: Echinochloa oryzicola; test: Herbicidal activity against Echinochloa oryzicola under greenhouse condition assessed as growth inhibition at 1000 g /ha measured after 33 days; assay type: functional, organism-based
[33] = test system: Schoenoplectiella juncoides; test: Herbicidal activity against Schoenoplectiella juncoides at 250 g /ha treated at 1.5 to 2.1-leaf stage measured after 26 days by outdoor concrete pot test; assay type: functional, organism-based
[34] = test system: Schoenoplectiella juncoides; test: Herbicidal activity against Schoenoplectiella juncoides at 500 g /ha treated at 1.5 to 2.1-leaf stage measured after 26 days by outdoor concrete pot test; assay type: functional, organism-based
[35] = test system: Sagittaria pygmaea; test: Herbicidal activity against Sagittaria pygmaea at 250 g /ha treated at 0.5 to 1-leaf stage measured after 26 days by outdoor concrete pot test; assay type: functional, organism-based
[36] = test system: Echinochloa oryzicola; test: Herbicidal activity against Echinochloa oryzicola under greenhouse condition assessed as growth inhibition at 500 g /ha measured after 27 days; assay type: functional, organism-based
[37] = test system: Echinochloa oryzicola; test: Herbicide activity against Echinochloa oryzicola under greenhouse condition compound treated at 2 leaf-stage measured after 14 to 20 days; assay type: functional
[38] = test system: Echinochloa oryzicola; test: Herbicidal activity against Echinochloa oryzicola grown in water-drained pot under greenhouse condition assessed as growth inhibition at 125 g /ha measured after 27 days; assay type: functional, organism-based
[39] = test system: Elatine triandra; test: Herbicidal activity against Elatine triandra at 250 g /ha treated at 1 to 2-pairs of leaf stage measured after 26 days by outdoor concrete pot test; assay type: functional, organism-based
[40] = test system: Cyperus serotinus; test: Herbicidal activity against Cyperus serotinus at 250 g /ha treated at 1 to 1.5-leaf stage measured after 26 days by outdoor concrete pot test; assay type: functional, organism-based
[41] = test system: Echinochloa oryzicola; test: Herbicidal activity against Echinochloa oryzicola at 1000 g /ha treated at 1.5 to 2-leaf stage measured after 26 days by outdoor concrete pot test; assay type: functional, organism-based
[42] = test system: Echinochloa oryzicola; test: Herbicidal activity against Echinochloa oryzicola under greenhouse condition assessed as growth inhibition at 250 g /ha measured after 33 days; assay type: functional, organism-based
[43] = test system: Echinochloa oryzicola; test: Herbicidal activity against Echinochloa oryzicola grown in water-drained pot under greenhouse condition assessed as growth inhibition at 125 g /ha measured after 20 days; assay type: functional, organism-based
[44] = test system: Echinochloa oryzicola; test: Herbicidal activity against Echinochloa oryzicola under greenhouse condition assessed as growth inhibition at 250 g /ha measured after 27 days; assay type: functional, organism-based
[45] = test system: Echinochloa oryzicola; test: Herbicidal activity against Echinochloa oryzicola under greenhouse condition assessed as growth inhibition at 1000 g /ha measured after 6 days; assay type: functional, organism-based
[46] = test system: Echinochloa oryzicola; test: Herbicidal activity against Echinochloa oryzicola under greenhouse condition assessed as growth inhibition at 125 g /ha measured after 33 days; assay type: functional, organism-based

CC1=C(c2ccccc2)C(=O)N(C(C)(C)c2nc3ccccc3s2)C1
inactive: growth inhibition (GI) [6] | growth inhibition (GI) [9] | growth inhibition (GI) [31] | growth inhibition (GI) [33] | growth inhibition (GI) [34] | growth inhibition (GI) [35] | growth inhibition (GI) [38] | growth inhibition (GI) [42] | growth inhibition (GI) [43] | growth inhibition (GI) [44]
2.5 g/acre: MTD [29]
20 g/acre: MED [26] | MED [28]
>42 days: Time [27]
27 days: Time [20]
30 days: Time [18]
active: growth inhibition (GI) [1] | growth inhibition (GI) [2] | growth inhibition (GI) [3] | growth inhibition (GI) [4] | growth inhibition (GI) [5] | growth inhibition (GI) [7] | growth inhibition (GI) [8] | growth inhibition (GI) [10] | growth inhibition (GI) [11] | growth inhibition (GI) [12] | growth inhibition (GI) [13] | growth inhibition (GI) [14] | growth inhibition (GI) [15] | growth inhibition (GI) [16] | growth inhibition (GI) [17] | growth inhibition (GI) [19] | growth inhibition (GI) [21] | growth inhibition (GI) [22] | growth inhibition (GI) [23] | growth inhibition (GI) [24] | growth inhibition (GI) [25] | growth inhibition (GI) [30] | growth inhibition (GI) [32] | growth inhibition (GI) [36] | growth inhibition (GI) [39] | growth inhibition (GI) [40] | growth inhibition (GI) [41] | growth inhibition (GI) [45] | growth inhibition (GI) [46]
1.25 g/acre: MED [37]

Reference: ChEMBL document CHEMBL3046147, “Synthesis and Herbicidal Activity of 1-Arylalkyl-3-pyrrolin-2-one Derivatives” (J Pestic Sci, 2000)
